Patent publication US20250382621A1, “IMMUNE EFFECTOR CELL THERAPIES WITH ENHANCED EFFICACY” (Novartis AG, priority 2015, published 2025)
Counter-ions that a name gives are not always drawn. Like-named read-outs stand apart in the source and are kept apart here.

Key:
[1] = tested on: Pan CD3+ T cells; test: Dose response of LSD1 inhibitors on T cell phenotypes; conditions: for EC50: Homo sapiens, T-cell; for CD4+ Tscm percentage: at 100 nM
Description: Cells were isolated from in vitro culture, washed once in MACS+0.5% BSA buffer, and stained on ice using either biotinylated Protein L followed by incubated with a fluorochrome-conjugated streptavidin reagent or an antibody recognizing the given target antigen. In all analyses, the population of interest was gated based on forward vs side scatter characteristics, followed by singlet gating, and live cells were gated.
The following parameters were investigated: • 1. Ratio of CD8/CD4 were calculated; • 2. % Tscm, Tem, Tem of CD3+ T cells; • 3. Ratios of Tscm/Tem and Tscm/Tcm of CD3+ T cells were calculated; • 4. % Tscm, Tem, Tem of CD8+ or CD4+ T cells were calculated; • 5. Ratios of Tscm/Tem and Tscm/Tcm of CD8+ or CD4+ T cells were calculated; and/or • 6. In the case of CAR+-T cells, percentage of Tscm, Tem, Tem of CD19-CAR+ T, and BCMA-10-CAR+ T cells were evaluated.
The Tscm population were evaluated as double CD45RA+CCR7+ or triple CD45RA+CCR7+CD62L+ in a given total live CD3+ or subset CD4+ or CD8+ T cell population. Tem were presented as double CD45RA−CCR7− and Tem as CD45RA−CCR7+ in a given total live CD3+ or subset CD4+ or CD8+ T cell population (FIG. 19 and FIG. 25 illustrate the gating strategies).
In all instances, LSD inhibitor compounds were either resuspended in water (H2O) and/or DMSO, depending on compound solubility. In all instances compounds were added throughout the ex vivo T cell culture, and T cells were washed extensively prior to assay. […] In the figures, “control” refers to vehicle with no LSD inhibitor compound added. For Pan CD3+ T cell expansion experiment, compound treatment was started at 4 h or 24 h after activation; for CART cell production, compound treatment was started at 48 h after viral transduction, and all treatments continued through culture period in all conditions.
Compounds were refreshed every 2-3 days when fresh media is replenished. Following 10 days of expansion, T cells were harvested and de-beaded and their phenotypes were analyzed by flow cytometry using antibodies against CD3, CD4, CD8, CD45RA, CCR7, CD62L, CD27 and CD28 plus live/dead dye to exclude the dead cell population.

[2] = target: T1, full-length LSD1 (Homo sapiens, UniProt O60341); test: FL-LSD1 LC-MS assay; format: biochemical; conditions: 0.4 nM FL-LSD1, H3K4me1 peptide substrate, 60 min room temperature; read-out: LCMS IC50 (LSD1 IC50 as measured by LCMS)
T1 construct: the full-length LSD1 and 0.5 pM FAD in reaction buffer
From the text: Representative compounds of the present disclosure were serially and separately diluted 3-fold in DMSO to obtain a total of twelve concentrations. […] The data were then fit to a dose response equation using the program Helios to get the IC50 values of the test compound.

[3] = tested on: T cells; test: T cell phenotype after expansion with LSD1 shRNA; format: cell-based, human; conditions: for enrichment of TSCM in resulting CD4+ T cell population: vs normal expansion
Description: Flow cytometry was performed on a four laser Fortessa (Becton-Dickinson).
T cells were isolated by negative selection and expanded with anti-CD3/CD28 beads at a 3:1 ratio for 10 days. On day 1, T cells were transduced with lentiviral expression vectors containing LSD1 shRNA targeting sequences that co-expressed the fluorescent protein mCherry. Following expansion, T cell phenotypes of mCherry+ T cells were assessed by flow cytometry.

[4] = anti-CD3/CD28 beads 3:1, 10 days, mCherry+ cells

c1ccc([C@@H]2C[C@H]2NC2CCNCC2)cc1 (relative stereo) [LSD1i-GSK, rel-N-[(1R,2S)-2-Phenylcyclopropyl]-4-Piperidinamine hydrochloride (1:2)]
total expansion rate of total cells ([1]; 10 day expansion): without changing the total expansion rate of total cells
ratio of CD8/CD4 ([1]; 10 day expansion, dose escalation): can significantly increase the ratio of CD8/CD4
EC50 ([1]; read-out: EC50 for inducing Tscm CD3+ T cells): 1.08 nM
EC50 ([1]; read-out: EC50 for inducing Tscm CD8+ T cells): 1.08 nM
CD4+ Tscm percentage [1]: about 5%
ratio of Tscm/Tem of CD3+ T cells ([1]; dose elevation, Tscm/Tcm unchanged): increases in response to dose elevation
ratio of Tscm/Tem of CD8+ T cells ([1]; dose elevation, hardly seen in the CD4+ population): significantly increases in response to dose elevation
CD3+ Tscm and Tem percentage ([1]; observed between 1 nM to 100 nM, Tcm remain the same): could increase/sustain CD3+ Tscm, decrease Tem, in a dose responsive fashion
CD8+ Tscm, CD4+ Tscm and Tem percentage ([1]; observed between 1 nM to 100 nM, Tcm unchanged): could increase/sustain CD8+ Tscm and CD4+ Tscm, decrease Tem, in a dose responsive fashion

Cc1cc2c(cc1C#N)c(-c1cccc(N)c1C)cn2[C@H]1CC[C@H](O)CC1 [Compound 93, Trans-3-(3-amino-2-methylphenyl)-1-(4-hydroxycyclohexyl)-6-methyl-1H-indole-5-carbonitrile]
CD4+ Tscm percentage [1]: about 5%

Cc1ccc(-c2ncc(OC[C@@H]3CCNC3)cc2-c2ccc(C#N)cc2)cc1 [Compound C, (R)-4-(5-(pyrrolidin-3-ylmethoxy)-2-(p-tolyl)pyridin-3-yl)benzonitrile]
IC50 [2]: 30 nM

LSD1 2: shRNA to LSD1, sequence encoding shRNA SEQ ID NO: 127 (DNA CAGAAGGCCTAGACATTAAACCTCGAGGTTTAATGTCTAGGCCTTCTGTTTTTTGA)
enrichment of TSCM in resulting CD4+ T cell population ([3]; CD4+ T cells): enriched in TSCM
percentage of CD8+ T cells having the TSCM phenotype (CD45RA+CD62L+CCR7+CD27+CD95+) [3, 4]: ~50%

B1: LSD1 1A: shRNA to LSD1, sequence encoding shRNA SEQ ID NO: 125 (nucleic acid)
DNA: CGGTTGCTAGAAGCTACATCTGTTAATATTCATAGCAGATGTAGCTTCTAGCAACCGTTTTTTGA
enrichment of TSCM in resulting CD4+ T cell population ([3]; CD4+ T cells): enriched in TSCM
percentage of CD8+ T cells having the TSCM phenotype (CD45RA+CD62L+CCR7+CD27+CD95+) [3, 4]: ~50%

B2: LSD1 1B: shRNA to LSD1, sequence encoding shRNA SEQ ID NO: 126 (nucleic acid)
DNA: CGGTTGCTAGAAGTTACATTTGTTAATATTCATAGCAGATGTAGCTTCTAGCAACCGTTTTTTGA
percentage of CD4+ T cells having the TSCM phenotype (CD45RA+CD62L+CCR7+CD27+CD95+) ([3]; CD4+ T cells, anti-CD3/CD28 beads 3:1, 10 days, mCherry+ cells): up to 20%
percentage of CD8+ T cells having the TSCM phenotype (CD45RA+CD62L+CCR7+CD27+CD95+) [3, 4]: ~50%
